We go through 14 compounds from patent US20230373934A1, “ANDROGEN RECEPTOR MODULATORS AND METHODS FOR THEIR USE” (ESSA Pharma, Inc., priority 2022, published 2023).

In one data set the target is T1, androgen receptor (AR) (Homo sapiens, UniProt P10275, T878A).
T1 construct: endogenous in cells; host or cells: LNCaP
T1 sequence (P10275 1-920 T878A): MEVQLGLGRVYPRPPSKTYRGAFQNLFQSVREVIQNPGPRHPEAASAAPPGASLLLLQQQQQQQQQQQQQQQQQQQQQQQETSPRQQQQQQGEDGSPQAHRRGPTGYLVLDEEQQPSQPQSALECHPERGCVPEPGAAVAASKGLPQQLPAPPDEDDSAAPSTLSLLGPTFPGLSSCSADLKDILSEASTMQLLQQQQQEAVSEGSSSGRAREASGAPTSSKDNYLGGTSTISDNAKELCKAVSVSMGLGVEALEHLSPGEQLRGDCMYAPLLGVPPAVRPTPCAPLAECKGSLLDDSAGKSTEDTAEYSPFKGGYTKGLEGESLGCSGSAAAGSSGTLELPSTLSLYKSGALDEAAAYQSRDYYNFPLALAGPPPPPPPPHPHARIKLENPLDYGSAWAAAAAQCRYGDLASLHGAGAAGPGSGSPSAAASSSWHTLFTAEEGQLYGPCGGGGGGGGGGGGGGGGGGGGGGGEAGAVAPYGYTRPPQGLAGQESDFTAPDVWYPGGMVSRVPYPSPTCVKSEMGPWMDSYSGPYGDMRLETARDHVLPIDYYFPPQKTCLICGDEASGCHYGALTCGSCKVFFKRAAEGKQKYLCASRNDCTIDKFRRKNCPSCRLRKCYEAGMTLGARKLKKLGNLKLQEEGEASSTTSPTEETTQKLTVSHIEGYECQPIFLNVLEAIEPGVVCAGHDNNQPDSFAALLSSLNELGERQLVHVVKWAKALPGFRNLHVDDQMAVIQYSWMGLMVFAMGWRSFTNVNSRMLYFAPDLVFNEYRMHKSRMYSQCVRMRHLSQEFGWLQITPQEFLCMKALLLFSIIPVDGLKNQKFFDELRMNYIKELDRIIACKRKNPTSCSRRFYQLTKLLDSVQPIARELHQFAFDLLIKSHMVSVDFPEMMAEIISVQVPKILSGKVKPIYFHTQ
The data set can be described thus: Androgen-induced PSA-luciferase assay, Luciferase Assay A (LNCaP transiently transfected with PSA (6.1 kb)-luciferase reporter). Format: cell-based. The following applies: LNCaP cells, 1 h pretreatment, R1881 (1 nM) 24 h, read-out: PSA-Luc IC50 Range. The procedure, abridged: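 LNCaP cells transfected 24 h with PSA (6.1 kb)-luciferase reporter, pretreated 1 h with compound, then stimulated 24 h with R1881 (1 nM). Firefly luminescence in lysates normalized to protein content; IC50 from activity relative to R1881-induced vehicle control.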

Data set [1] is described as follows: Microsomal stability assay, liver microsome half-life (mouse). Format: in vitro ADME. To be noted: pH 7.4; mouse liver microsomes 0.5 mg/mL + NADPH, 1 μM compound, 37° C; read-out: Liver microsome + NADPH T½ (min) Mouse. From the text: (§1) Microsomal Stability Assay: Microsomal stability assay is a widely used in vitro model to characterize the metabolic conversion by phase I enzymes, such as cytochrome P450 (CYP) enzymes. Since metabolism is known to be highly variable in different species, microsomal stability assay is commonly run in multiple species. Metabolic stability of testing compound can be evaluated using human, rat, mouse, or other animal liver or intestine microsomes to predict intrinsic clearance.
(§2) The assay was carried out in 96-well microtiter plates at 37° C. Reaction mixtures (25 μL) contained a final concentration of 1 μM test compound, 0.5 mg/mL liver microsomes protein, and 1 mM NADPH and/or 1 mM UDPGA (with alamethicin) in 100 mM potassium phosphate, pH 7.4 buffer with 3 mM MgCl2. The incubation was done with N=1, but duplicate incubation at each time point can be prepared if necessary. At each of the time points (for example, 0, 15, 30, and 60 minutes), 150 μL of quench solution (100% acetonitrile with 0.1% formic acid) with internal standard was transferred to each well. Besides the zero minute controls, mixtures containing the same components except the NADPH can also be prepared as the negative control. Verapamil was included as a positive control to verify assay performance. Plates were sealed, vortexed, and centrifuged at 4° C. for 15 minutes at 4000 rpm. The supernatant is transferred to fresh plates for LC/MS/MS analysis.
(§3) Summarized conditions: [Compound]=1 μM, [LM]=0.5 mg/mL, [NADPH]=1 mM and/or [UDPGA]=1 mM, Buffer=100 mM Potassium Phosphate, pH 7.4 with 3 mM MgCl2, Time=0, 15, 30, and 60 min, and Temperature=37° C.
(§4) All samples were analyzed on LC/MS/MS using an AB Sciex API 4000 instrument, coupled to a Shimadzu LC-20AD LC Pump system. Analytical samples were separated using a Waters Atlantis T3 dC18 reverse phase HPLC column (20 mm×2.1 mm) at a flow rate of 0.5 mL/min. The mobile phase consisted of 0.1% formic acid in water (solvent A) and 0.1% formic acid in 100% acetonitrile (solvent B).
(§5) The extent of metabolism is calculated as the disappearance of the test compound, compared to the 0-min time incubation. Initial rates are calculated for the compound concentration and used to determine half-life (t1/2).
A general note: Liver microsomes are vesicles of endoplasmic reticulum, rich in cytochrome P450 enzymes.

Data set [2] in a line: Microsomal stability assay, liver microsome half-life (monkey). It is filed as in vitro ADME. To be noted: pH 7.4; monkey liver microsomes 0.5 mg/mL + NADPH, 1 μM compound, 37° C; read-out: Liver microsome + NADPH T½ (min) Monkey.
Description: as §1, §2, §3, §4, §5

A short description of data set [3]: Microsomal stability assay, liver microsome half-life (human). The following applies: pH 7.4; human liver microsomes 0.5 mg/mL + NADPH, 1 μM compound, 37° C; read-out: Liver microsome + NADPH T½ (min) Human. Format: in vitro ADME.
Description: as §1, §2, §3, §4, §5

A short description of data set [4]: Microsomal stability assay, liver microsome half-life (dog). It is filed as in vitro ADME. The following applies: pH 7.4; dog liver microsomes 0.5 mg/mL + NADPH, 1 μM compound, 37° C; read-out: Liver microsome + NADPH T½ (min) Dog.
Description: as §1, §2, §3, §4, §5

The nature of data set [5]: Microsomal stability assay, liver microsome half-life (rat). Format: in vitro ADME. To be noted: pH 7.4; rat liver microsomes 0.5 mg/mL + NADPH, 1 μM compound, 37° C; read-out: Liver microsome + NADPH T½ (min) Rat.
Description: as §1, §2, §3, §4, §5

The IC50 is the concentration at which inhibition is half-maximal. For the compound `CS(=O)(=O)Nc1cnc2cc(-c3ccc(N(CC(F)(F)F)c4cc(Cl)c(OCCCl)c(C#N)c4)cc3)ccc2n1` [Compound A22, N-(6-(4-((3-chloro-4-(2-chloroethoxy)-5-cyanophenyl)(2,2,2-trifluoroethyl)amino)phenyl)quinoxalin-2-yl)methanesulfonamide], on androgen receptor (AR), the IC50 fell in the range of 500 to 2000 nM. Moreover, the half-life at 1 μM in data set [1], in data set [2], in data set [3], in data set [4] and in data set [5] was > 120 min throughout.

`CS(=O)(=O)Nc1ccc2cc(-c3ccc(Oc4cc(Cl)c(OCCCl)c(C#N)c4)cc3)cnc2n1` [Compound A24]: at androgen receptor (AR), the IC50 fell in the range of 500 to 2000 nM. For the same compound, the half-life at 1 μM in data set [1] is > 120 min; in data set [2], > 120 min; in data set [3], > 120 min; in data set [4], 78 min; in data set [5] it was > 120 min.

Regarding `CC(C)(C)N(c1ccc(-c2ccc3nc(NS(C)(=O)=O)cnc3c2)cc1)c1cc(Cl)c(OCCCl)c(C#N)c1` [Compound A28], the IC50 on androgen receptor (AR) was in the range of 500 to 2000 nM. Moreover, the half-life at 1 μM in data set [1] was > 120 min; in data set [2], > 120 min; in data set [3] it was 78 min; in data set [4], > 120 min; in data set [5], > 120 min.

For the compound `CC(C)(c1ccc(-c2cnc(N3CC(NS(C)(=O)=O)C3)nc2)cc1)c1cc(Cl)c(OCCCl)c(C#N)c1` [Compound A36, N-(1-(5-(4-(2-(3-chloro-4-(2-chloroethoxy)-5-cyanophenyl)propan-2-yl)phenyl)pyrimidin-2-yl)azetidin-3-yl)methanesulfonamide], the IC50 at androgen receptor (AR) is < 500 nM. In addition, the half-life at 1 μM in data set [1] is > 120 min; in data set [2], 49 min; in data set [3], > 120 min; in data set [4], > 120 min; in data set [5] it was 66 min.

On to `CC(C)(c1ccc(-c2cnc(N3CC(NS(C)(=O)=O)C3)cn2)cc1)c1cc(Cl)c(OCCCl)c(C#N)c1` [Compound A37], for which the IC50 at androgen receptor (AR) was < 500 nM. Besides, the half-life at 1 μM in data set [1] was > 120 min; in data set [2], 32 min; in data set [3], > 120 min; in data set [4], > 120 min; in data set [5], > 120 min.

As to `COc1c(Cl)cc(Oc2ccc(-c3ccc4nc(NS(C)(=O)=O)cnc4c3)cc2)cc1C#N` [Compound A43], the IC50 on androgen receptor (AR) was < 500 nM. Further, the half-life at 1 μM in data set [1], in data set [2], in data set [3], in data set [4] and in data set [5] was > 120 min throughout.

For `CC(C)(c1ccc(-c2cnn([C@H]3C[C@H](NS(C)(=O)=O)C3)c2)cc1)c1cc(Cl)c(OCCCl)c(C#N)c1` [Compound A44, N-((1r,3r)-3-(4-(4-(2-(3-chloro-4-(2-chloroethoxy)-5-cyanophenyl)propan-2-yl)phenyl)-1H-pyrazol-1-yl)cyclobutyl)methanesulfonamide], the half-inhibitory concentration (IC50) at androgen receptor (AR) is < 500 nM. The half-life at 1 μM in data set [1] is > 120 min; in data set [2] it was 117 min; in data set [3], > 120 min; in data set [4], > 120 min; in data set [5], 112 min.

Consider `CC(C)(c1ccc(OC2CC3(C2)CN(S(C)(=O)=O)C3)cc1)c1cc(Cl)c(OCCCl)c(C#N)c1` [Compound A72], for which, on androgen receptor (AR), the IC50 lay in the range of 500 to 2000 nM. Further, the half-life at 1 μM in data set [1], in data set [2], in data set [3], in data set [4] and in data set [5] was > 120 min each time.

As for `CC(C)(c1ccc(-c2cnn(C34CC(NS(C)(=O)=O)(C3)C4)c2)cc1)c1cc(Cl)c(OCCCl)c(C#N)c1` [Compound A75], the IC50 on androgen receptor (AR) lay within 500 to 2000 nM. Besides, the half-life at 1 μM in data set [1], in data set [2], in data set [3], in data set [4] and in data set [5] was > 120 min each time.

For the compound `CS(=O)(=O)Nc1cnc2cc(-c3ccc(Oc4cc(Cl)c(OC5CCC5)c(C#N)c4)cc3)ccc2n1` [Compound A78], the IC50 on androgen receptor (AR) is 500 to 2000 nM. The half-life at 1 μM in data set [1], in data set [2], in data set [3], in data set [4] and in data set [5] was > 120 min in each case.

As to `CS(=O)(=O)Nc1cnc2cc(-c3ccc(N(c4cc(Cl)c(OCCCl)c(C#N)c4)C4CC4)cc3)ccc2n1` [Compound A80, N-(6-(4-((3-chloro-4-(2-chloroethoxy)-5-cyanophenyl)(cyclopropyl)amino)phenyl)quinoxalin-2-yl)methanesulfonamide], the IC50 on androgen receptor (AR) was < 500 nM. Moreover, the half-life at 1 μM in data set [1] is 96 min; in data set [2], > 120 min; in data set [3], > 120 min; in data set [4], > 120 min; in data set [5], > 120 min.

As to `CN(c1ccc(-c2ccc3nc(NS(C)(=O)=O)cnc3c2)cc1)c1cc(Cl)c(OCCCl)c(C#N)c1` [Compound A81], the IC50 at androgen receptor (AR) is < 500 nM. Further, the half-life at 1 μM in data set [1], in data set [2], in data set [3], in data set [4] and in data set [5] was > 120 min throughout.

In the case of `CCN(c1ccc(-c2ccc3nc(NS(C)(=O)=O)cnc3c2)cc1)c1cc(Cl)c(OCCCl)c(C#N)c1` [Compound A82], the IC50 at androgen receptor (AR) was < 500 nM. The half-life at 1 μM in data set [1], in data set [2], in data set [3], in data set [4] and in data set [5] was > 120 min in each case.

For the compound `CS(=O)(=O)Nc1cnc2cc(-c3ccc(Oc4cc(Cl)c(N5CCOCC5)c(C#N)c4)cc3)ccc2n1` [Compound A83], the IC50 on androgen receptor (AR) is 500 to 2000 nM. The half-life at 1 μM in data set [1], in data set [2], in data set [3], in data set [4] and in data set [5] was > 120 min throughout.
